Laboratory results reported in patent US12606561B2, “Substituted pyrazolo[1,5-a][1,3,5]triazines as CDK inhibitors” (QURIENT CO., LTD., priority 2018, dated 2026).

Key:
Assay type in all cases: biochemical
CDK1/Cyclin B = target: T1, CDK1/Cyclin B (Homo sapiens, UniProt P06493); experiment: Enzymatic assay for CDK1 (LANCE Ultra kinase assay, FRET based); conditions: ATP at Km; read-out: CDK1 enzymatic activity IC50
T1 construct: purchased Invitrogen PR4768C
Protocol: (§1) Enzymatic Binding Assay Protocol for CDK1, CDK2, CDK5 and CDK7
(§2) Inhibition activity of the respective compound on CDK kinase under Km value of ATP was tested in FRET based The LANCE® Ultra kinase assay (Perkin Elmer), which uses a ULight™-labeled peptide substrate and an appropriate Europium-labeled anti-phospho-antibody. […] After 1 min centrifugation at 1000 rpm, purified CDKs/Cyclin complex were added with the following concentrations respectively. […] Data were analyzed using XL Fit software.

CDK2/Cyclin A = target: T2, CDK2/Cyclin A (Homo sapiens, UniProt P24941); experiment: Enzymatic assay for CDK2 (LANCE Ultra kinase assay, FRET based); conditions: ATP at Km
T2 construct: purchased Invitrogen PV6290
Protocol: as §1
(§3) Inhibition activity of the respective compound on CDK kinase under Km value of ATP was tested in FRET based The LANCE® Ultra kinase assay (Perkin Elmer), which uses a ULight™-labeled peptide substrate and an appropriate Europium-labeled anti-phospho-antibody. Test compounds were made with DMSO solutions, and then 4-fold serial dilutions for 8 doses were prepared using automated liquid handler (POD™ 810, Labcyte) and 80 nL/well of diluted compound solutions were added into the 384-well plates (Greiner, Cat #784075). And then 68 nM of ULight-MBP peptide (Perkin Elmer, Cat #TRF0109-M) and 5 ul/well of ATP (Sigma, Cat #A7699) were added to the plate. After 1 min centrifugation at 1000 rpm, purified CDKs/Cyclin complex were added with the following concentrations respectively. 24 uM for CDK1/Cyclin B (Invitrogen, Cat #PR4768C), 22 uM for CDK2/Cyclin A (Invitrogen, Cat #PV6290), 10 uM for CDK5/p25 (Invitrogen, Cat #PR8543B) and […] for CDK7/Cyclin H/MNAT1 (Invitrogen, Cat #PR6749B) were added to each corresponding plate for CDK1, CDK2, CDK5 and CDK7. Incubate at 23° C. for 60 min and then Eu-labeled anti-phospho-Myelin Basic Protein (PE, Cat #TRF0201-M) and EDTA (Invitrogen, Cat #15575038) mixture in Lance Detection Buffer (Perkin Elmer, Cat #CR97100) was added in each well. After additional incubation at 23° C. for 60 min, test articles were measured the fluorescence using Envision leader (Perkin Elmer, USA) [Laser as excitation light; […] as the first and the second emission filter]. Data were analyzed using XL Fit software.

CDK5/p25 = target: T3, CDK5/p25 (Homo sapiens, UniProt Q00535); experiment: Enzymatic assay for CDK5 (LANCE Ultra kinase assay, FRET based); conditions: ATP at Km
T3 construct: purchased Invitrogen PR8543B
Protocol: as §1, §3

CDK7/Cyclin H/MNAT1 = target: T4, CDK7/Cyclin H/MNAT1 (Homo sapiens, UniProt P50613); experiment: Enzymatic assay for CDK7 (LANCE Ultra kinase assay, FRET based); conditions: for IC50: ATP at Km
T4 construct: purchased Invitrogen PR6749B
Protocol: as §1, §2

T1 sequence (P06493 whole entry): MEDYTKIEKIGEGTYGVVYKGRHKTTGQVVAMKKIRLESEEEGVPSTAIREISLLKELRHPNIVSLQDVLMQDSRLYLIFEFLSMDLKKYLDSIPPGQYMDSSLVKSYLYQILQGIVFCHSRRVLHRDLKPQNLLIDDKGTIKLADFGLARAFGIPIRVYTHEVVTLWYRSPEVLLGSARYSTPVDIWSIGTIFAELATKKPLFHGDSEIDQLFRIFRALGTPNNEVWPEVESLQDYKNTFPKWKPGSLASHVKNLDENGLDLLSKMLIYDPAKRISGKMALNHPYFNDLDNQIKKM
T1 sequence (P14635 whole entry partner): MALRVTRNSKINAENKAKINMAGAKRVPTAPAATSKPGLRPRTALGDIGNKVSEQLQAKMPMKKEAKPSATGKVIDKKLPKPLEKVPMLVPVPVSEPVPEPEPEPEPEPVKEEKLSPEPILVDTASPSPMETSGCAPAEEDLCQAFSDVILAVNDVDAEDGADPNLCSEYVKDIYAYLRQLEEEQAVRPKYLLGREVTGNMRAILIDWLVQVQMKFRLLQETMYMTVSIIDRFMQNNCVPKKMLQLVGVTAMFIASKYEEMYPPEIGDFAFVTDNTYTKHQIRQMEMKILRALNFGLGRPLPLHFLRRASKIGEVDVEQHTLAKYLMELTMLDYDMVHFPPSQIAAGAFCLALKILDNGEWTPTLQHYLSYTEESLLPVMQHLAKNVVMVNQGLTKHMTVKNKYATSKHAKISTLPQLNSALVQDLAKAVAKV
T3 sequence (Q00535 whole entry): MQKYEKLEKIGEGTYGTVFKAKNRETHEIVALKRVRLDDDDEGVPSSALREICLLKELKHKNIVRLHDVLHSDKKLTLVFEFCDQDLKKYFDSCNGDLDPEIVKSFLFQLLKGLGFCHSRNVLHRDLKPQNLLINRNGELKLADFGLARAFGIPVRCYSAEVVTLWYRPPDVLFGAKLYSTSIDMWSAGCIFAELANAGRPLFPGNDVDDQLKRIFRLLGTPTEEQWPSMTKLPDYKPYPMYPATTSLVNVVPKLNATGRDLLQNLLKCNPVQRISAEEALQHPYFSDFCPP
T3 sequence (Q15078 99-307 partner limits assumed): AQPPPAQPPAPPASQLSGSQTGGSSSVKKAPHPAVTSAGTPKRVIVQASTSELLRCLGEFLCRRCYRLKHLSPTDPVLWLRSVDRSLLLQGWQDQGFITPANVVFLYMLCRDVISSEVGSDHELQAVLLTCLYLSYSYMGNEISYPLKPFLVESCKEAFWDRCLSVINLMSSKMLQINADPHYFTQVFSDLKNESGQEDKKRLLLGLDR
T4 sequence (P50613 whole entry): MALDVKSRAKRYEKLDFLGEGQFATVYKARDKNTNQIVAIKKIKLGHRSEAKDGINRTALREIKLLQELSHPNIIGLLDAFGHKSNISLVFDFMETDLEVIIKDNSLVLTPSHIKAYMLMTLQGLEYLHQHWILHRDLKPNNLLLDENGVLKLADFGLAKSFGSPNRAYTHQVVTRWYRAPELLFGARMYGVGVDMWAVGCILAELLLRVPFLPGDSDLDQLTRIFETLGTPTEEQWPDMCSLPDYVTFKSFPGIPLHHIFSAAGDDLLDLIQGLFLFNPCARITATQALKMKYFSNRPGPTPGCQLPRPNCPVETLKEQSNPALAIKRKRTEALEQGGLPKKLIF
T4 sequence (P51946 whole entry partner): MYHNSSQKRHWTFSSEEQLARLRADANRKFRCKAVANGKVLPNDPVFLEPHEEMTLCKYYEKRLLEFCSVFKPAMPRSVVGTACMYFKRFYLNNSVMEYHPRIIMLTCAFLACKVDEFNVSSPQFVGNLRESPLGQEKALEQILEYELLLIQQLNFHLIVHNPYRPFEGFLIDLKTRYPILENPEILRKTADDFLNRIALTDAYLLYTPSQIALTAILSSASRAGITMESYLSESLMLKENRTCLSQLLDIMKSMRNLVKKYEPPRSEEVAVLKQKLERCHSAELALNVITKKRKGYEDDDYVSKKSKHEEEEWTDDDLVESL
T4 sequence (P51948 whole entry partner): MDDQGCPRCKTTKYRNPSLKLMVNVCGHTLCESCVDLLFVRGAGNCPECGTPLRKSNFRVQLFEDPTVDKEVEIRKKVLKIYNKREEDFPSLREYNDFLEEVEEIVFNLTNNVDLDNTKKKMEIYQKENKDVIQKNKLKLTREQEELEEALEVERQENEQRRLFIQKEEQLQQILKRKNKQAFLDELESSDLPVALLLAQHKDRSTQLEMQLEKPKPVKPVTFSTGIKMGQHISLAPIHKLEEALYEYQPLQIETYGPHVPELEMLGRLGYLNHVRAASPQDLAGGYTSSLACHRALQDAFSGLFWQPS

| Compound | IC50 (CDK1/Cyclin B) [µM] | IC50 (CDK2/Cyclin A) [µM] | IC50 (CDK5/p25) [µM] | IC50 (CDK7/Cyclin H/MNAT1) [µM] | CDK1/CDK7: Selectivity of CDK7 inhibition over CDK1 inhibition (CDK7/Cyclin H/MNAT1) | CDK2/CDK7: Selectivity of CDK7 inhibition over CDK2 inhibition (CDK7/Cyclin H/MNAT1) | CDK5/CDK7: Selectivity of CDK7 inhibition over CDK5 inhibition (CDK7/Cyclin H/MNAT1) |
| --- | --- | --- | --- | --- | --- | --- | --- |
| CO[C@H]1CC[C@H](Nc2nc(NCc3c(C)cccc3-c3cc4cccc(NC(=O)/C=C/CN(C)C)c4[nH]3)n3ncc(C(C)C)c3n2)CC1 [Compound 129] | > 1 | > 1 | > 1 | 0.1 to 1 | B (B indicates 50 < [fold] ≤ 500) | B (B indicates 50 < [fold] ≤ 500) | B (B indicates 50 < [fold] ≤ 500) |
| CO[C@H]1CNCC[C@@H]1CNc1nc(NCc2ccccc2-c2nccc3cc(NC(=O)/C=C/CN(C)C)ccc23)n2ncc(C(C)C)c2n1 [Compound 131] | > 1 | > 1 | > 1 | < 0.1 | A (A indicates [fold] > 500) | A (A indicates [fold] > 500) | A (A indicates [fold] > 500) |
| CO[C@H]1CC[C@H](Nc2cc(NCc3ccccc3-c3nccc4cc(NC(=O)/C=C/CN(C)C)ccc34)n3ncc(C(C)C)c3n2)CC1 [Compound 132] | > 1 | > 1 | > 1 | < 0.1 | A (A indicates [fold] > 500) | A (A indicates [fold] > 500) | A (A indicates [fold] > 500) |
| CNS(=O)(=O)C[C@H]1CC[C@H](Nc2nc(NCc3ccccc3-c3nccc4cc(NC(=O)/C=C/CN(C)C)ccc34)n3ncc(C(C)C)c3n2)CC1 [Compound 134] | > 1 | > 1 | > 1 | < 0.1 | A (A indicates [fold] > 500) | A (A indicates [fold] > 500) | A (A indicates [fold] > 500) |
| CC#CC(=O)Nc1ccc2c(-c3ccccc3CNc3nc(N[C@H]4CC[C@H](OC)CC4)nc4c(C(C)C)cnn34)nccc2c1 [Compound 135] | > 1 | > 1 | > 1 | 0.1 to 1 | B (B indicates 50 < [fold] ≤ 500) | B (B indicates 50 < [fold] ≤ 500) | B (B indicates 50 < [fold] ≤ 500) |
| COC1CCC(CNc2nc(NCc3ccccc3-c3nccc4cc(NC(=O)/C=C/CN(C)C)ccc34)n3ncc(C(C)C)c3n2)CC1 (centres unmarked) [Compound 136] | > 1 | > 1 | > 1 | 0.1 to 1 | B (B indicates 50 < [fold] ≤ 500) | B (B indicates 50 < [fold] ≤ 500) | B (B indicates 50 < [fold] ≤ 500) |
| Cc1cccc(-c2ccc3cccc(NC(=O)/C=C/CN(C)C)c3n2)c1CNc1nc(NCC2CCNCC2)nc2c(C(C)C)cnn12 [Compound 138] | > 1 | > 1 | > 1 | < 0.1 | A (A indicates [fold] > 500) | A (A indicates [fold] > 500) | A (A indicates [fold] > 500) |
| Cc1cccc(-c2cc3cccc(NC(=O)/C=C/CN(C)C)c3[nH]2)c1CNc1nc(NCC2CCNCC2)nc2c(C(C)C)cnn12 [Compound 139] | > 1 | > 1 | > 1 | < 0.1 | A (A indicates [fold] > 500) | A (A indicates [fold] > 500) | A (A indicates [fold] > 500) |

Now from value to compound:

| IC50 (CDK1/Cyclin B) [µM] | IC50 (CDK2/Cyclin A) [µM] | IC50 (CDK5/p25) [µM] | IC50 (CDK7/Cyclin H/MNAT1) [µM] | CDK1/CDK7: Selectivity of CDK7 inhibition over CDK1 inhibition (CDK7/Cyclin H/MNAT1) | CDK2/CDK7: Selectivity of CDK7 inhibition over CDK2 inhibition (CDK7/Cyclin H/MNAT1) | CDK5/CDK7: Selectivity of CDK7 inhibition over CDK5 inhibition (CDK7/Cyclin H/MNAT1) | Compound |
| --- | --- | --- | --- | --- | --- | --- | --- |
| > 1 | > 1 | > 1 | 0.1 to 1 | B (B indicates 50 < [fold] ≤ 500) | B (B indicates 50 < [fold] ≤ 500) | B (B indicates 50 < [fold] ≤ 500) | CO[C@H]1CC[C@H](Nc2nc(NCc3c(C)cccc3-n3ccc4cc(NC(=O)/C=C/CN(C)C)ccc43)n3ncc(C(C)C)c3n2)CC1 [Compound 140] |
| > 1 | > 1 | > 1 | < 0.1 | A (A indicates [fold] > 500) | A (A indicates [fold] > 500) | A (A indicates [fold] > 500) | C=C(F)C(=O)Nc1cccc2cc(-c3cccc(C)c3CNc3nc(NCC4CNCCO4)nc4c(C(C)C)cnn34)[nH]c12 (centres unmarked) [Compound 141] |
| > 1 | > 1 | > 1 | < 0.1 | A (A indicates [fold] > 500) | A (A indicates [fold] > 500) | A (A indicates [fold] > 500) | COC[C@H]1CC[C@H](Nc2nc(NCc3ccccc3-c3nccc4cc(NC(=O)/C=C/CN(C)C)ccc34)n3ncc(C(C)C)c3n2)CC1 [Compound 142] |
| > 1 | > 1 | > 1 | 0.1 to 1 | B (B indicates 50 < [fold] ≤ 500) | B (B indicates 50 < [fold] ≤ 500) | B (B indicates 50 < [fold] ≤ 500) | C=C(F)C(=O)Nc1ccc2c(-c3ccccc3CNc3nc(N[C@H]4CC[C@H](CS(=O)(=O)NC)CC4)nc4c(C(C)C)cnn34)nccc2c1 [Compound 143] |
| > 1 | > 1 | > 1 | < 0.1 | A (A indicates [fold] > 500) | A (A indicates [fold] > 500) | A (A indicates [fold] > 500) | CN[C@H]1CC[C@H](Nc2nc(NCc3ccccc3-c3nccc4cc(NC(=O)/C=C/CN(C)C)ccc34)n3ncc(C(C)C)c3n2)CC1 [Compound 145] |
| > 1 | > 1 | > 1 | < 0.1 | A (A indicates [fold] > 500) | A (A indicates [fold] > 500) | A (A indicates [fold] > 500) | C=C(F)C(=O)Nc1ccc2c(-c3ccccc3CNc3nc(N[C@H]4CC[C@H](NC)CC4)nc4c(C(C)C)cnn34)nccc2c1 [Compound 146] |
| > 1 | > 1 | > 1 | < 0.1 | B (B indicates 50 < [fold] ≤ 500) | B (B indicates 50 < [fold] ≤ 500) | B (B indicates 50 < [fold] ≤ 500) | C=C(F)C(=O)Nc1ccc2c(-c3ccccc3CNc3nc(NC[C@H]4CNCCO4)nc4c(C(C)C)cnn34)nccc2c1 [Compound 148] |
| > 1 | > 1 | > 1 | < 0.1 | B (B indicates 50 < [fold] ≤ 500) | C (C indicates [fold] ≤ 50) | B (B indicates 50 < [fold] ≤ 500) | C=C(F)C(=O)Nc1ccc2c(-c3ccccc3CNc3nc(NC[C@@H]4CNCCO4)nc4c(C(C)C)cnn34)nccc2c1 [Compound 149] |
| > 1 | > 1 | > 1 | < 0.1 | A (A indicates [fold] > 500) | A (A indicates [fold] > 500) | A (A indicates [fold] > 500) | CC(C)c1cnn2c(NCc3ccccc3-c3nccc4cc(NC(=O)/C=C/CN(C)C)ccc34)nc(O[C@@H]3CCCNC3)nc12 [Compound 152] |
